Broadly, the IC50 is the concentration needed to halve the response being measured. A higher IC50 goes with weaker potency.

T1 sequence (Q86U44 whole entry): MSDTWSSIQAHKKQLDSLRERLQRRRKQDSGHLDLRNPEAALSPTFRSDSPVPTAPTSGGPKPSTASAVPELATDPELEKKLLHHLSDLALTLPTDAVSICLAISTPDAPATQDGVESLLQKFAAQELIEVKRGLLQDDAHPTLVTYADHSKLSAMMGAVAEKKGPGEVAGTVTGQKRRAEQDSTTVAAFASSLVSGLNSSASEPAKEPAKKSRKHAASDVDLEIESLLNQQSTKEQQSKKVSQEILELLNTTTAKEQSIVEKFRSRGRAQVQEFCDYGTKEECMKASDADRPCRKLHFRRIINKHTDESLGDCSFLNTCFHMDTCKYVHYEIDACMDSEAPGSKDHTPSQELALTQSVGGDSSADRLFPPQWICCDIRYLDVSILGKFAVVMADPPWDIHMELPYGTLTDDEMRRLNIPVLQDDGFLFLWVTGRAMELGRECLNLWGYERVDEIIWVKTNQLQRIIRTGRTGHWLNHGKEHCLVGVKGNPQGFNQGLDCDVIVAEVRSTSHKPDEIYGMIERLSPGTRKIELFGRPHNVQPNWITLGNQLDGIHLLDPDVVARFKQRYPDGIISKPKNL
T1 sequence (Q9HCE5 whole entry partner): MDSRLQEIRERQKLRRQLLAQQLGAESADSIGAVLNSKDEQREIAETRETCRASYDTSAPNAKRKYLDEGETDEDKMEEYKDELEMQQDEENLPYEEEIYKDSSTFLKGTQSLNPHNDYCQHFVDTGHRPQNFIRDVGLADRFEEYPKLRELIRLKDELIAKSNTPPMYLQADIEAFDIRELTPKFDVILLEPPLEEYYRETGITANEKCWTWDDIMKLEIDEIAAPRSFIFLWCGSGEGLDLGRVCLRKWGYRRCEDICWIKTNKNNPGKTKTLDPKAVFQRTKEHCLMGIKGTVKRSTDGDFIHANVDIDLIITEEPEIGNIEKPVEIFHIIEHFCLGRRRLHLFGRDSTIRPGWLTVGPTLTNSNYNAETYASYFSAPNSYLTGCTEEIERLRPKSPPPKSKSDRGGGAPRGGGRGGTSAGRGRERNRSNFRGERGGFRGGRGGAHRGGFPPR

This assay has as its target T1, METTL3/14 (Homo sapiens, UniProt Q86U44).
T1 construct: purchased active motif 31570
Kind of assay: METTL3/14 methyltransferase activity assay (HTRF). It counts as biochemical. The conditions noted are these: 10 concentrations, 3-fold dilution from 10 µM. The procedure: The final initial concentration of the compound was 10 µM, with 3-fold serial dilution to give a total of 10 concentrations. 100 nL of the compound was transferred to a 384-well plate and centrifuged at 1000 RPM. 2.5 µL of METTL3/14 (active motif, Cat No. 31570) was added to the test wells and incubated at 25°C for 10 min. 2.5 µL of METTL3-Biotin & SAM (GenScript) was added to the test wells andincubated at 25°C for 60 min. 2.5 µL of YTHDF1 (active motif, Cat No. 31608) was added to the test wells and centrifuged at 1000 RPM. 2.5 µL of Streptavidin-Tb (Perkin Elmer Cat No. 61SATLB) & Flag-mede (Perkin Elmer Cat No. 61FG2DLA) was added to the test wells and centrifuged at 1000 RPM. Incubated at 25°C for 60 min. HTRF was measured using a Plate reader. The results of each compound are shown in Table 1, where A+indicates <10nM, A indicates 10-100nM, B indicates 100-1000nM, and C indicates >1000nM.
Compound `O=C(NCc1ccc2cc(CNCC3CCC3)[nH]c2c1)c1cn2ncccc2n1` [Example 1, N-((2-(((Cyclobutylmethyl)amino)methyl)-1H-indol-6-yl)methyl)imidazo[1,2-b]pyridazine-2-carboxamide] gave an IC50 of 0.01 to 0.1 µM.
Then `O=C(NCc1ccc2cc(CNCC3CCC3)[nH]c2c1)c1cc2ncccn2n1` [Example 2, N-((2-(((Cyclobutylmethyl)amino)methyl)-1H-indol-6-yl)methyl)pyrazolo[1,5-a]pyrimidine-2-carboxamide], with 0.01 to 0.1 µM.
On to `O=C(NCc1ccc2cc(CNCC3CCC3)[nH]c2c1)c1cnn2cccnc12` [Example 3, N-((2-(((Cyclobutylmethyl)amino)methyl)-1H-indol-6-yl)methyl)pyrazolo[1,5-a]pyrimidine-3-carboxamide], for which the IC50 was 0.01 to 0.1 µM.
Then `O=C(NCc1ccc2cc(CNCC3CCC3)[nH]c2c1)c1cn2nccc(N3CCOCC3)c2n1` [Example 8, N-((2-(((Cyclobutylmethyl)amino)methyl)-1H-indol-6-yl)methyl)-8-morpholinoimidazo[1,2-b]pyridazine-2-carboxamide], with 0.1 to 1 µM; and `O=C(NCc1ccc2cc(CNCC3CCC3)[nH]c2c1)c1ccn(Cc2ccccc2)c(=O)c1` [Example 11, 1-Benzyl-N-((2-(((cyclobutylmethyl)amino)methyl)-1H-indol-6-yl)methyl)-2-oxo-1,2-dihydropyridine-4-carboxamide], with 0.01 to 0.1 µM; and `CNc1nc(C(=O)NCc2ccc3cc(CNCC4CCC4)[nH]c3c2)cn2nccc12` [Example 13, N-((2-(((Cyclobutylmethyl)amino)methyl)-1H-indol-6-yl)methyl)-4-(methylamino)pyrazolo[1,5-a]pyrazine-6-carboxamide], with 0.01 to 0.1 µM.
Regarding `COc1ccc(CNc2nc(C(=O)NCc3ccc4cc(CNCC5CCC5)[nH]c4c3)cn3nccc23)cc1` [Example 14, N-((2-(((Cyclobutylmethyl)amino)methyl)-1H-indol-6-yl)methyl)-4-((4-methoxybenzyl)amino)pyrazolo[1,5-a]pyrazine-6-carboxamide], the IC50 lay within 0.01 to 0.1 µM.
Then `O=C(NCc1ccc2cc(CNCC3CCC3)[nH]c2c1)c1cn2nccc2c(N2CCCC2)n1` [Example 15, N-((2-(((Cyclobutylmethyl)amino)methyl)-1H-indol-6-yl)methyl)-4-(pyrrolidin-1-yl)pyrazolo[1,5-a]pyrazine-6-carboxamide], with 0.1 to 1 µM.
Then `O=C(NCc1cc2ccc(CNCC3CCC3)cc2[nH]1)c1cc(=O)n2ccccc2n1` [Example 21, N-((6-(((Cyclobutylmethyl)amino)methyl)-1H-indol-2-yl)methyl)-4-oxo-4H-pyrido[1,2-a]pyrimidine-2-carboxamide], with 0.1 to 1 µM.
`O=C(NCc1ccc2cc(CN3CCC(F)(F)CC3)[nH]c2c1)c1cc(=O)n2cc3c(cc2n1)OCCO3` [Example 27] yielded an IC50 of 0.01 to 0.1 µM.
Then `O=C(NCc1ccc2cc(CNCC3CC(=C(F)F)C3)[nH]c2c1)c1cc(=O)n2cc3c(cc2n1)OCCO3` (stereo not drawn) [Example 28, N-((2-((((3-(Difluoromethylene)cyclobutyl)methyl)amino)methyl)-1H-indol-6-yl)methyl)-9-oxo-2,3-dihydro-9H-[1,4]dioxino[2',3':4,5]pyrido[1,2-a]pyrimidine-7-carboxamide], with 0.1 to 1 µM; and `O=C(NCc1ccc2cc(CN3CCC(F)(F)CC3)[nH]c2c1)c1cc(=O)n2cc3c(cc2n1)OCO3` [Example 29, N-((2-((4,4-Difluoropiperidin-1-yl)methyl)-1H-indol-6-yl)methyl)-8-oxo-8H-[1,3]dioxolo[4',5':4,5]pyrido[1,2-a]pyrimidine-6-carboxamide], with 0.01 to 0.1 µM.
Then `O=C(NCc1ccc2cc(CNCC3CCC3)[nH]c2c1)c1cc(=O)n2cc3c(cc2n1)OC(F)(F)O3` [Example 30, N-((2-(((Cyclobutylmethyl)amino)methyl)-1H-indol-6-yl)methyl)-2,2-difluoro-8-oxo-8H-[1,3]dioxolo[4',5':4,5]pyrido[1,2-a]pyrimidine-6-carboxamide], with 0.01 to 0.1 µM.
Then `O=C(NCc1cc2[nH]c(CNCC3CCC3)cc2s1)c1cc(=O)n2cc3c(cc2n1)OCCO3` [Example 31, N-((5-(((cyclobutylmethyl)amino)methyl)-4H-thieno[3,2-b]pyrrol-2-yl)methyl)-9-oxo-2,3-dihydro-9H-[1,4]dioxino[2',3':4,5]pyrido[1,2-a]pyrimidine-7-carboxamide], with 0.01 to 0.1 µM; and `O=C(NCc1ccc2cc(CN3CCc4ccccc4C3)[nH]c2c1)c1cc(=O)n2cc3c(cc2n1)OCO3` [Example 34, N-((2-((3,4-dihydroisoquinolin-2(1H)-yl)methyl)-1H-indol-6-yl)methyl)-8-oxo-8H-[1,3]dioxolo[4',5':4,5]pyrido[1,2-a]pyrimidine-6-carboxamide], with 0.01 to 0.1 µM; and `O=C(NCc1ccc2cc(CNC3CCC(F)(F)CC3)[nH]c2c1)c1cc(=O)n2cc3c(cc2n1)OCO3` [Example 37, N-((2-(((4,4-Difluorocyclohexyl)amino)methyl)-1H-indol-6-yl)methyl)-8-oxo-8H-[1,3]dioxolo[4',5':4,5]pyrido[1,2-a]pyrimidine-6-carboxamide], with 0.01 to 0.1 µM.
The compound `O=C(NCc1ccc2cc(CNC3CC(F)(F)C3)[nH]c2c1)c1cc(=O)n2cc3c(cc2n1)OCO3` [Example 39, N-((2-(((3,3-Difluorocyclobutyl)amino)methyl)-1H-indol-6-yl)methyl)-8-oxo-8H-[1,3]dioxolo[4',5':4,5]pyrido[1,2-a]pyrimidine-6-carboxamide] registered an IC50 of 0.01 to 0.1 µM.
Then `O=C(NCc1ccc2cc(CNCC3(C(F)(F)F)CC3)[nH]c2c1)c1cc(=O)n2cc3c(cc2n1)OCO3` [Example 40, 8-Oxo-N-((2-((((1-(trifluoromethyl)cyclopropyl)methyl)amino)methyl)-1H-indol-6-yl)methyl)-8H-[1,3]dioxolo[4',5':4,5]pyrido[1,2-a]pyrimidine-6-carboxamide], with 0.01 to 0.1 µM; and `O=C(NC1(c2ccc3cc(CNCC4CCC4)[nH]c3c2)CC1)c1cc(=O)n2cc3c(cc2n1)OCO3` [Example 42, N-(1-(2-(((Cyclobutylmethyl)amino)methyl)-1H-indol-6-yl)cyclopropyl)-8-oxo-8H-[1,3]dioxolo[4',5':4,5]pyrido[1,2-a]pyrimidine-6-carboxamide], with 0.1 to 1 µM.
Then `O=C(NC1(c2ccc3cc(CNCC4CCC4)[nH]c3c2)CC1)c1cc(=O)n2cc3c(cc2n1)OCCO3` [Example 43, N-(1-(2-(((Cyclobutylmethyl)amino)methyl)-1H-indol-6-yl)cyclopropyl)-9-oxo-2,3-dihydro-9H-[1,4]dioxino[2',3':4,5]pyrido[1,2-a]pyrimidine-7-carboxamide], with 0.01 to 0.1 µM; and `O=C(NCc1ccc2cc(CNCC3(C(F)(F)F)CCC3)[nH]c2c1)c1cc(=O)n2cc3c(cc2n1)OCO3` [Example 56, 8-Oxo-N-((2-((((1-(trifluoromethyl)cyclobutyl)methyl)amino)methyl)-1H-indol-6-yl)methyl)-8H-[1,3]dioxolo[4',5':4,5]pyrido[1,2-a]pyrimidine-6-carboxamide], with 0.01 to 0.1 µM.
Regarding `O=C(NCc1ccc2cc(CNCC3CC4(CCC4)C3)[nH]c2c1)c1cc(=O)n2cc3c(cc2n1)OCO3` [Example 58, 8-Oxo-N-((2-(((spiro[3.3]heptan-2-ylmethyl)amino)methyl)-1H-indol-6-yl)methyl)-8H-[1,3]dioxolo[4',5':4,5]pyrido[1,2-a]pyrimidine-6-carboxamide], the IC50 lay in the range of 0.01 to 0.1 µM.
Then `CN1CCOc2cnn3cc(C(=O)NCc4ccc5cc(CNCC6CCC6)[nH]c5c4)nc1c23` [Example 59, N-((2-(((Cyclobutylmethyl)amino)methyl)-1H-indol-6-yl)methyl)-6-methyl-7,8-dihydro-6H-9-oxa-2,2a,5,6-tetraazabenzo[cd]azulene-4-carboxamide], with 0.1 to 1 µM; and `O=C(NCc1ccc2cc(CNCC34CCCC3C4)[nH]c2c1)c1cc(=O)n2cc3c(cc2n1)OCO3` (stereo not drawn) [Example 60, N-((2-(((Bicyclo[3.1.0]hexan-1-ylmethyl)amino)methyl)-1H-indol-6-yl)methyl)-8-oxo-8H-[1,3]dioxolo[4',5':4,5]pyrido[1,2-a]pyrimidine-6-carboxamide], with < 0.01 µM.
`O=C(NCc1ccc2cc(CNCC3CCC3)[nH]c2c1)c1cn2ncc3c2c(n1)OCCO3` [Example 61, N-((2-(((Cyclobutylmethyl)amino)methyl)-1H-indol-6-yl)methyl)-7,8-dihydro-6,9-dioxa-2,2a,5-triazabenzo[cd]azulene-4-carboxamide] yielded an IC50 of 0.1 to 1 µM.
Then `[2H]C([2H])(NCC1CCC1)c1cc2ccc(CNC(=O)c3cc(=O)n4cc5c(cc4n3)OCO5)cc2[nH]1` [Example 62, N-((2-(((cyclobutylmethyl)amino)methyl-d2)-1H-indol-6-yl)methyl)-8-oxo-8H-[1,3]dioxolo[4',5':4,5]pyrido[1,2-a]pyrimidine-6-carboxamide], with < 0.01 µM; and `O=C(NCc1ccc2cc(CNCC34CCCC3C4)[nH]c2c1)c1cc(=O)n2cc3c(cc2n1)OCCO3` (stereo not drawn) [Example 63, N-((2-(((Bicyclo[3.1.0]hexan-1-ylmethyl)amino)methyl)-1H-indol-6-yl)methyl)-9-oxo-2,3-dihydro-9H-[1,4]dioxino[2',3':4,5]pyrido[1,2-a]pyrimidine-7-carboxamide], with < 0.01 µM.
